Read-outs that look alike come from different tables or passages of the source.
Test system: ATF6
Assay: ERSE ATF6-luciferase reporter assay (thapsigargin-induced ER stress)
Type: cell-based, human
Conditions: Homo sapiens, U2OS
Procedure: Human bone osteosarcoma (U2-OS) cells were obtained from the American Type Culture Collection (ATCC HTB-96, ATCC Manassas, VA) and were cultured with growing medium containing Dulbecco's Modified Eagle's Medium (DMEM) (Cat. No.:SH30023.02, HyClone) supplemented with fetal bovine serum (FBS) 10% (Cat. No.: 16000044, Gibco) and 1% penicillin-streptomycin antibiotic cocktail (Cat. No.: SV30010, Hyclone).
Cignal Lenti ATF6 luc reporter (Qiagen #CLS-6031L) was used to produce a stable cell line in U2-OS cells. […] The number of response elements as well as the intervening sequence between response elements has been experimentally optimized to maximize the signal to noise ratio.
Compounds were prepared as 10 mM stock solutions and stored at −80° C.
U2-OS ATF6 luc reporter cells were thawed 3-4 days and split once prior to assays. […] At the day of experiment, cells were pre-treated for 30 min with 50 μL growing medium containing either vehicle (dimethyl sulfoxide (DMSO)) (Cat. No.: D2650, Sigma-Aldrich) or 1 μM test compound. After the pre-incubation time, 50 μL of a solution containing 0.2 μM thapsigargin (Tg)(an ER stress inducer) was added to respective wells. This Tg solution also contained vehicle or test compounds at 1 μM. The final concentration of DMSO in each well was kept at 0.3%. Plates were incubated for 8 hr in humidified chambers.
Finally, after 8 hr, plates were cooled to room temperature for 10 min prior to luciferase assays. Luciferase reactions were performed using Luciferase Assay System (Cat. No.: E4550, Promega). Briefly, each well was washed with 100 μl of PBS1X and then 20 μl of lysis reagent were added into each well. Plates were shaken for 10 min, then 50 μl of Luciferase Assay Reagent were added to each well and luminescence was read with an integration time of 1 s and a gain of 110 in a Synergy 4 Microplate reader.
For the assessment of the half-maximal inhibitory concentration (IC50) for selected compounds, dose-response assays were performed. Compounds were serially diluted using DMSO starting at 30 μM until 1 nM. The assays were run as described above.

[1] = 8 h, 1 μM test compound, thapsigargin-induced ER stress, U2-OS ATF6 luc reporter cells, 8 hr, read-out: Inh. ATF6-Luc @ 1 μM [%]
[2] = dose-response 30 μM to 1 nM, thapsigargin-induced ER stress, U2-OS ATF6 luc reporter cells, read-out: IC50 ATF6-Luc reporter
[3] = 1 μM test compound, thapsigargin-induced ER stress, U2-OS ATF6 luc reporter cells, 8 hr, read-out: Inh. ATF6-Luc @ 1 μM [%]

SMILES	inhibition at 1 µM [1] [%]	IC50 [2] [µM]	further results
C[C@H](c1ccc(C(F)(F)F)cc1C(F)(F)F)n1cc(NC(=O)c2cc(-c3cccnc3)on2)cn1 [Compound 36, (R)-N-(1-(1-(2,4-bis(trifluoromethyl)phenyl)ethyl)-1H-pyrazol-4-yl)-5-(pyridin-3-yl)isoxazole-3-carboxamide]	< 25	> 10	–
C[C@@H](c1ccc(C(F)(F)F)cc1C(F)(F)F)n1cc(NC(=O)c2cc(-c3cccnc3)on2)cn1 [Compound 37, (S)-N-(1-(1-(2,4-bis(trifluoromethyl)phenyl)ethyl)-1H-pyrazol-4-yl)-5-(pyridin-3-yl)isoxazole-3-carboxamide]	< 25	> 10	–
C[C@@H](c1ccc(C(F)(F)F)cc1C(F)(F)F)n1cc(NC(=O)c2cc(-c3ccccn3)no2)cn1 [Compound 77, (S)—N-(1-(1-(2,4-bis(trifluoromethyl)phenyl)ethyl)-1H-pyrazol-4-yl)-3-(pyridin-2-yl)isoxazole-5-carboxamide]	–	–	inhibition at 1 µM (8 h, read-out: Inh. ATF6-Luc @ 1 μM [%], 1 μM test compound, thapsigargin-induced ER stress, U2-OS ATF6 luc reporter cells, 8 hr): < 25%; IC50 (read-out: IC50 ATF6-Luc reporter [μM], dose-response 30 μM to 1 nM, thapsigargin-induced ER stress, U2-OS ATF6 luc reporter cells): > 10 µM
CC(c1ccc(C(F)(F)F)cc1C(F)(F)F)n1cc(NC(=O)c2csc(-c3ccccn3)n2)cn1 (stereo not drawn) [Compound 79, N-(1-(1-(2,4-bis(trifluoromethyl)phenyl)ethyl)-1H-pyrazol-4-yl)-2-(pyridin-2-yl)thiazole-4-carboxamide]	–	–	inhibition at 1 µM (8 h, read-out: Inh. ATF6-Luc @ 1 μM [%]): < 25%; IC50 (read-out: IC50 ATF6-Luc reporter [μM]): > 10 µM
CC(c1ccc(C(F)(F)F)cc1C(F)(F)F)n1cc(NC(=O)c2cnc(-c3ccco3)s2)cn1 (stereo not drawn) [Compound 80, N-(1-(1-(2,4-bis(trifluoromethyl)phenyl)ethyl)-1H-pyrazol-4-yl)-2-(furan-2-yl)thiazole-5-carboxamide]	< 25	> 10	–
CC(c1ccc(C(F)(F)F)cc1C(F)(F)F)n1cc(NC(=O)c2cc(-c3ccccn3)ccn2)cn1 (stereo not drawn) [Compound 81, N-(1-(1-(2,4-bis(trifluoromethyl)phenyl)ethyl)-1H-pyrazol-4-yl)-[2,4′-bipyridine]-2′-carboxamide]	–	> 10	inhibition at 1 µM [3]: < 25%
CC(c1ccc(C(F)(F)F)cc1C(F)(F)F)n1cc(NC(=O)c2ccc(-c3ccccn3)cn2)cn1 (stereo not drawn) [Compound 82, N-(1-(1-(2,4-bis(trifluoromethyl)phenyl)ethyl)-1H-pyrazol-4-yl)-[2,3′-bipyridine]-6′-carboxamide]	–	> 10	inhibition at 1 µM [3]: < 25%
CC(c1ccc(C(F)(F)F)cc1C(F)(F)F)n1cc(NC(=O)/C=C/c2ccccn2)cn1 (stereo not drawn) [Compound 83, (E)—N-(1-(1-(2,4-bis(trifluoromethyl)phenyl)ethyl)-1H-pyrazol-4-yl)-3-(pyridin-2-yl)acrylamide]	< 25	> 10	–
O=C(/C=C/c1ccco1)Nc1cnn(Cc2ccc(C(F)(F)F)cc2C(F)(F)F)c1 [Compound 84, (E)—N-(1-(2,4-bis(trifluoromethyl)benzyl)-1H-pyrazol-4-yl)-3-(furan-2-yl)acrylamide]	–	> 10	inhibition at 1 µM [3]: < 25%
C[C@H](c1ccc(C(F)(F)F)cc1C(F)(F)F)n1cc(NC(=O)/C=C/c2ccco2)cn1 [Compound 85, (R,E)—N-(1-(1-(2,4-bis(trifluoromethyl)phenyl)ethyl)-1H-pyrazol-4-yl)-3-(furan-2-yl)acrylamide]	< 25	> 10	–
C[C@@H](c1ccc(C(F)(F)F)cc1C(F)(F)F)n1cc(NC(=O)/C=C/c2ccco2)cn1 [Compound 86, (S,E)—N-(1-(1-(2,4-bis(trifluoromethyl)phenyl)ethyl)-1H-pyrazol-4-yl)-3-(furan-2-yl)acrylamide]	< 25	> 10	–
Cc1nn(-c2ccc(C(F)(F)F)cc2C(F)(F)F)cc1NC(=O)/C=C/c1ccco1 [Compound 87, (E)—N-(1-(2,4-bis(trifluoromethyl)phenyl)-3-methyl-1H-pyrazol-4-yl)-3-(furan-2-yl)acrylamide]	< 25	> 10	–

Source: patent US20240124434A1, “ATF6 INHIBITORS AND USES THEREOF” (Altos Labs, Inc., priority 2018, published 2024)
